Data: ChEMBL document CHEMBL3792292, “Development of a potent and selective FLT3 kinase inhibitor by systematic expansion of a non-selective fragment-screening hit” (Bioorg Med Chem Lett, 2016)

Tests used:
[1] = target: T1, Serine/threonine-protein kinase 4 (Homo sapiens) (UniProt Q13043); assay: Inhibition of full length human N-terminal GST-tagged MST1 (1 to 487 residues) expressed in baculovirus expression system using fluorescence labelled IRS1 as substrate at 50 times IC50 by electrophoretic mobility shift assay relative to control
T1 sequence (whole entry): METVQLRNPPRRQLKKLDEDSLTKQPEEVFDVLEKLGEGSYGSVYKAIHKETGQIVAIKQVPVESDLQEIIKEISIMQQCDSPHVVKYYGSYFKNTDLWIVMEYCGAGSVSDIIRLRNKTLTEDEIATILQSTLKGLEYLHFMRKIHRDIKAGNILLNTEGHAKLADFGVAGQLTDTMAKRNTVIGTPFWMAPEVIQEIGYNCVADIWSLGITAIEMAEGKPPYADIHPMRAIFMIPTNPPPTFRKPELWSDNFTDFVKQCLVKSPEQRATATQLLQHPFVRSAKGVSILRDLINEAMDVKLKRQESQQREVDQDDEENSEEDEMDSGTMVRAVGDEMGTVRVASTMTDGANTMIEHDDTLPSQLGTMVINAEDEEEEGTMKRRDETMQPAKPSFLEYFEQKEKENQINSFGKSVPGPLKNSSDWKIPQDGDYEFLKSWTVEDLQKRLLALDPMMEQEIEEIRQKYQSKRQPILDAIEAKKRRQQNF

[2] = target: CYP3A4 (Homo sapiens, UniProt P08684); assay: Inhibition of human recombinant CYP3A4 at 10 uM by fluorimetry relative to control; assay type: ADME
Sequence of CYP3A4 (P08684 whole entry): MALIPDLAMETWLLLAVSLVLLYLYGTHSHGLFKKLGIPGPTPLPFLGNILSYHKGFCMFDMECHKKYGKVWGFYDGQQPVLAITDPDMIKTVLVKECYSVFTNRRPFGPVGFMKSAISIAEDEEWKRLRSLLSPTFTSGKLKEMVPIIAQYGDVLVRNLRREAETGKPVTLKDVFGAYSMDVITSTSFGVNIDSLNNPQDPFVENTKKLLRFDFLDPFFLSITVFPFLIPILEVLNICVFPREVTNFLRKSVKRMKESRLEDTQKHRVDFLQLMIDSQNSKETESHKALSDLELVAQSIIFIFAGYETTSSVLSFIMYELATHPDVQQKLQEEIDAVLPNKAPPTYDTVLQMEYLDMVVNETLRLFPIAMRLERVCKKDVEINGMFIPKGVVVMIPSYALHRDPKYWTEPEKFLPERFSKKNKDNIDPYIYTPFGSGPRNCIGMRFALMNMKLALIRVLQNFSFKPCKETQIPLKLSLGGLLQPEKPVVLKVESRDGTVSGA

[3] = target: CYP1A2 (Homo sapiens, UniProt P05177); assay: Inhibition of human recombinant CYP1A2 using CEC as substrate at 10 uM after 30 mins by fluorimetry relative to control; assay type: ADME; conditions: recombinant CYP1A2, probe CEC
Sequence of CYP1A2 (P05177 whole entry, the tested form may be a part): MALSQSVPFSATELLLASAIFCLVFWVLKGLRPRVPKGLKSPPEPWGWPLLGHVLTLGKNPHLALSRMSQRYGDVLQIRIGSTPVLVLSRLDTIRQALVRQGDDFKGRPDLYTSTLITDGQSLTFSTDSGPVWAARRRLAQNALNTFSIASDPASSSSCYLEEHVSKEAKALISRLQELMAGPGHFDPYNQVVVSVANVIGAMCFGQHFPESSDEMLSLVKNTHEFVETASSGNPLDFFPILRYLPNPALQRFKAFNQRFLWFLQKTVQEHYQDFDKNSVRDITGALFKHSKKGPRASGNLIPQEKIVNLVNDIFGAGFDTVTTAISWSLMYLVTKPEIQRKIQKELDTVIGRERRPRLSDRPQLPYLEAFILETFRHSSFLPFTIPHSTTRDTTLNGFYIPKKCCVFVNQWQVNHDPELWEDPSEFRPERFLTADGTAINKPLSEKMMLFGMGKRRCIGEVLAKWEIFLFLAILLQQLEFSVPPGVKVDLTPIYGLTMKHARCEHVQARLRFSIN

[4] = target: Glycogen synthase kinase-3 beta (Homo sapiens) (UniProt P49841); assay: Inhibition of full length human N-terminal GST-tagged GSK3beta (1 to 420 residues) expressed in baculovirus expression system using fluorescence labelled CREBtide-p as substrate at 50 times IC50 by electrophoretic mobility shift assay relative to control
Sequence of Glycogen synthase kinase-3 beta (Homo sapiens) (P49841 whole entry, looked up, the tested form may be a part): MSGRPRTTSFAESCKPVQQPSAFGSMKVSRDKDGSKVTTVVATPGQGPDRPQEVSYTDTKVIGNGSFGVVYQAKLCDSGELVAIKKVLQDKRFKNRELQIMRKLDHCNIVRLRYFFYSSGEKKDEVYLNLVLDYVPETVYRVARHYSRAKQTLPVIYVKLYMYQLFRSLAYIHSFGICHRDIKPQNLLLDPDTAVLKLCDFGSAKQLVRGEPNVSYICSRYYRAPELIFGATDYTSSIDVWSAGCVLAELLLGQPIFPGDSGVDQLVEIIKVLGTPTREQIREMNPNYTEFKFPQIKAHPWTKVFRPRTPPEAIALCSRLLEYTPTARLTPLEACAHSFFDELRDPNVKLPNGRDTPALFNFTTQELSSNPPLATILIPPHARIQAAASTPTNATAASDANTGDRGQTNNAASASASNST

[5] = Growth inhibition of human WI38 cells after 48 hrs by CCK8 assay; assay type: cell-based; conditions: WI-38, 48 h
[6] = target: CYP2C19 (Homo sapiens, UniProt P33261); assay: Inhibition of human CYP2C19 at 10 uM relative to control; assay type: ADME
Sequence of CYP2C19 (P33261 whole entry, the tested form may be a part): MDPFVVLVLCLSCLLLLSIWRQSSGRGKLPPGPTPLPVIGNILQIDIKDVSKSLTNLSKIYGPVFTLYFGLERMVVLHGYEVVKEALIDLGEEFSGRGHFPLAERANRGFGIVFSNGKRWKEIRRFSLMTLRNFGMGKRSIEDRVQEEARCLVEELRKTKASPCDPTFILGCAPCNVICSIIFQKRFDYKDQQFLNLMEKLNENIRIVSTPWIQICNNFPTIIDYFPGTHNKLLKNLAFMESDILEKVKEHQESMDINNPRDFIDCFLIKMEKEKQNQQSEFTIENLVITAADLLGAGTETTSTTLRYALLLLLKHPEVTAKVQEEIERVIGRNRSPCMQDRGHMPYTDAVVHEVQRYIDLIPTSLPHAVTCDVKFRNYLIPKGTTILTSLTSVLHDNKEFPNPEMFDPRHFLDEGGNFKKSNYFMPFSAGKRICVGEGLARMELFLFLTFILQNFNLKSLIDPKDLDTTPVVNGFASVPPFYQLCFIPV

[7] = target: T2, Serine/threonine-protein kinase Sgk1 (Homo sapiens) (UniProt O00141); assay: Inhibition of human N-terminal GST-tagged SGK (61 to 431 residues) expressed in baculovirus expression system coexpressing His-tagged PDK1 (1 to 556 residues) using fluorescence labelled SGKtide as substrate at 50 times IC50 by electrophoretic mobility shift assay relative to control
T2 sequence (whole entry): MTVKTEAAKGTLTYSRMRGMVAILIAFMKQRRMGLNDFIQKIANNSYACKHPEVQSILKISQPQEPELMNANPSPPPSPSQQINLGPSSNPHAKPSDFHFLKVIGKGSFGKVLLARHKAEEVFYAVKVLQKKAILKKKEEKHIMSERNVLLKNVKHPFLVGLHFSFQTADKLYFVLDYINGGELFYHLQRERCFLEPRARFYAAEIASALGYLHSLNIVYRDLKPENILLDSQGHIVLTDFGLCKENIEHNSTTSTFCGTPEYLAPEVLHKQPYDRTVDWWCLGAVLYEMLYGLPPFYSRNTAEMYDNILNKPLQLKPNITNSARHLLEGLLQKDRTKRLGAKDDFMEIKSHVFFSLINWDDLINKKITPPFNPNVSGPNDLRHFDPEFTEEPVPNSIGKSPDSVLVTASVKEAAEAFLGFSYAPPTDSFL

[8] = target: CYP2C9 (Homo sapiens, UniProt P11712); assay: Inhibition of human CYP2C9 at 10 uM relative to control; assay type: ADME
Sequence of CYP2C9 (P11712 whole entry, the tested form may be a part): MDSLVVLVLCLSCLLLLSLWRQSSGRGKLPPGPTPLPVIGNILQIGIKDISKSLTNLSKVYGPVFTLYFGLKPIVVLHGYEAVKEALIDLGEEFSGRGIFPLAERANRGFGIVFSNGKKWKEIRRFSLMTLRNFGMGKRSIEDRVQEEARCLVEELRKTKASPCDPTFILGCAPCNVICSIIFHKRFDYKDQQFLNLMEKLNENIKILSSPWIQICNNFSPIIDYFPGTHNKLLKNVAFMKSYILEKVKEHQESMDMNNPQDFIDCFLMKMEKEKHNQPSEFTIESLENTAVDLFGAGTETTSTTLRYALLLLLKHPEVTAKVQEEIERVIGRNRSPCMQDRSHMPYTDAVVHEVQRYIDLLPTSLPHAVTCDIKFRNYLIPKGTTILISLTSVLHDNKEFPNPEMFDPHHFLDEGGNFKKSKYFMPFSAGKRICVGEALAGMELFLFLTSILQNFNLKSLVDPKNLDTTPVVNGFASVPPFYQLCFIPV

[9] = target: High affinity nerve growth factor receptor (Homo sapiens, UniProt P04629); assay: Inhibition of human N-terminal GST-tagged TRKA cytoplasmic domain (436 to 790 residues) expressed in baculovirus expression system using fluorescence labelled CSKtide as substrate by electrophoretic mobility shift assay
Sequence of High affinity nerve growth factor receptor (P04629 whole entry, the tested form may be a part): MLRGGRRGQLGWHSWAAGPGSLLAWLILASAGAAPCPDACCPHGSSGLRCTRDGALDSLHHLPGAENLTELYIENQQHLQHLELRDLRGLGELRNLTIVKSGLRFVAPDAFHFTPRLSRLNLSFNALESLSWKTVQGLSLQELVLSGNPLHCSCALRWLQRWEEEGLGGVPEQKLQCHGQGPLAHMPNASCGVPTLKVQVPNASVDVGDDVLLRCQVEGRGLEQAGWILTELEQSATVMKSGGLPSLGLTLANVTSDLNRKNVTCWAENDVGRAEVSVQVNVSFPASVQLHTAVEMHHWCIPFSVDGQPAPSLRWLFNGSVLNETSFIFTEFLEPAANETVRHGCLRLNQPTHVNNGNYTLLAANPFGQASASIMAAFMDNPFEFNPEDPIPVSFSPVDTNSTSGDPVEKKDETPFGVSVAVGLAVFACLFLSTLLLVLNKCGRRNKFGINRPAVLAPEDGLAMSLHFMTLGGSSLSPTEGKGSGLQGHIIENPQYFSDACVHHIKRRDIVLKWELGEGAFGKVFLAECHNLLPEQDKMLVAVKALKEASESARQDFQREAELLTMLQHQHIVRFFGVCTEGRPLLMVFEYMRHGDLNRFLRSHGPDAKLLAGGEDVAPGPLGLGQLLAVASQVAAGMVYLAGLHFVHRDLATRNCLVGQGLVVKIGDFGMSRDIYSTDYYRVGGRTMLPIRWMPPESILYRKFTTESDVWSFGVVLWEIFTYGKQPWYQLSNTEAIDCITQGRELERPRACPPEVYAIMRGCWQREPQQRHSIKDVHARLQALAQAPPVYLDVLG

[10] = target: CDK2/Cyclin A2 (Homo sapiens) (UniProt P24941+P20248); assay: Inhibition of full length human N-terminal GST-tagged CDK2 (1 to 298 residues)/Cyclin A2 (1 to 432 residues) expressed in baculovirus expression system using fluorescence labelled modified histone H1 as substrate at 50 times IC50 by electrophoretic mobility shift assay relative to control
[11] = Metabolic stability in human liver microsomes assessed as parent compound remaining at 1 uM after 1 hr; assay type: ADME; conditions: read-out: Stability
[12] = target: Angiopoietin-1 receptor (Homo sapiens) (UniProt Q02763); assay: Inhibition of human N-terminal GST-tagged TIE2 receptor cytoplasmic domain (771 to 1124 residues) expressed in baculovirus expression system using fluorescence labelled Blk/Lyntide as substrate at 50 times IC50 by electrophoretic mobility shift assay relative to control
Sequence of Angiopoietin-1 receptor (Homo sapiens) (Q02763 whole entry, the tested form may be a part): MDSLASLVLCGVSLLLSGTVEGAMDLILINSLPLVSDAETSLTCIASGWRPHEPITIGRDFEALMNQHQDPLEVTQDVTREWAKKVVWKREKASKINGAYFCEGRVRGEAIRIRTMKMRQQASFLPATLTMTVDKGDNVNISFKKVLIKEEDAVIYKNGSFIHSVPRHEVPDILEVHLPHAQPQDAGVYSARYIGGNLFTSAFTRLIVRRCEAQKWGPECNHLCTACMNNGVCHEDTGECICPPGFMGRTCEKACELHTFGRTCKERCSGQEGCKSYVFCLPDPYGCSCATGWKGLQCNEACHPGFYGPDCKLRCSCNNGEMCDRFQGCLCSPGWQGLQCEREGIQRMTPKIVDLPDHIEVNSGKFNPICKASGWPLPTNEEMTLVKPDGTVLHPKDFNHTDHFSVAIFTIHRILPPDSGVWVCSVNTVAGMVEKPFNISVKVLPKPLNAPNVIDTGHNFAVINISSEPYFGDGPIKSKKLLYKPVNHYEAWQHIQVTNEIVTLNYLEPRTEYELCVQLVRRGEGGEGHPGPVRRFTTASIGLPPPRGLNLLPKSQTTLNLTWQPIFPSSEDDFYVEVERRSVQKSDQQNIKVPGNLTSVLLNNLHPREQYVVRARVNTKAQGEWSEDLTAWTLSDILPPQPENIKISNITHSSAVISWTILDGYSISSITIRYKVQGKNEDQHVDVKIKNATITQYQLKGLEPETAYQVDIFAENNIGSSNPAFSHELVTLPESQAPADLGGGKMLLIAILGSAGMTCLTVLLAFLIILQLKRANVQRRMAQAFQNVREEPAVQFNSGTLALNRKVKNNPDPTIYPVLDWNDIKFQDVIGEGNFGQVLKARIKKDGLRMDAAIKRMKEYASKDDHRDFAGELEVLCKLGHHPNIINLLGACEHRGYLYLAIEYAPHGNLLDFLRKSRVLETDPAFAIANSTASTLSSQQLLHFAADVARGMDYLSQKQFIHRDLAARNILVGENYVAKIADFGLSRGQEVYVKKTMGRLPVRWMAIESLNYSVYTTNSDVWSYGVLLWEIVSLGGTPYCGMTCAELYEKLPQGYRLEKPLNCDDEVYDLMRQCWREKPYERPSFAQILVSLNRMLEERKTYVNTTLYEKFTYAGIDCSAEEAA

[13] = system: MV4-11; assay: Growth inhibition of human MV4-11 cells harboring FLT3-ITD after 48 hrs by CCK8 assay; assay type: functional, cell-based; conditions: MV4-11, 48 h
[14] = target: T3, Serine/threonine-protein kinase Chk1 (Homo sapiens) (UniProt O14757); assay: Inhibition of full length human N-terminal GST-tagged CHK1 (1 to 476 residues) expressed in baculovirus expression system using fluorescence labelled CHKtide as substrate at 50 times IC50 by electrophoretic mobility shift assay relative to control
T3 sequence (whole entry): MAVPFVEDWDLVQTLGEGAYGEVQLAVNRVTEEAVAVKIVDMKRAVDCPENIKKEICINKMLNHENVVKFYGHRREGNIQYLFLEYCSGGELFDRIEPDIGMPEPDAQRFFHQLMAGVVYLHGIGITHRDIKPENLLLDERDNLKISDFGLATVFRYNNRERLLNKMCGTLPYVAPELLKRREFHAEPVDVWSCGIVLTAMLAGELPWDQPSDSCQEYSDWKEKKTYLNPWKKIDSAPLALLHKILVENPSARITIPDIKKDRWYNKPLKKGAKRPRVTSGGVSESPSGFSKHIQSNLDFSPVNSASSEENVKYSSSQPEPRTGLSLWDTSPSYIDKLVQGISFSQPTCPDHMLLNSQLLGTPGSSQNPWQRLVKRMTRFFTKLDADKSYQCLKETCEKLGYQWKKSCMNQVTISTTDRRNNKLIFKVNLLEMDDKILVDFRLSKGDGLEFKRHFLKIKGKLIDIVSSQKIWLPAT

[15] = species on record: Homo sapiens; assay: Selectivity ratio of IC50 for human N-terminal GST-tagged HGK catalytic domain (1 to 328 residues) expressed in baculovirus expression system to IC50 for human N-terminal GST-tagged FLT3 cytoplasmic domain (564 to 993 residues) expressed in baculovirus expression system
[16] = target: Proto-oncogene tyrosine-protein kinase Src (Homo sapiens) (UniProt P12931); assay: Inhibition of full length human N-terminal GST-tagged SRC (1 to 536 residues) expressed in baculovirus expression system using fluorescence labelled srctide as substrate at 50 times IC50 by electrophoretic mobility shift assay relative to control
Sequence of Proto-oncogene tyrosine-protein kinase Src (Homo sapiens) (P12931 2-536 limits assumed): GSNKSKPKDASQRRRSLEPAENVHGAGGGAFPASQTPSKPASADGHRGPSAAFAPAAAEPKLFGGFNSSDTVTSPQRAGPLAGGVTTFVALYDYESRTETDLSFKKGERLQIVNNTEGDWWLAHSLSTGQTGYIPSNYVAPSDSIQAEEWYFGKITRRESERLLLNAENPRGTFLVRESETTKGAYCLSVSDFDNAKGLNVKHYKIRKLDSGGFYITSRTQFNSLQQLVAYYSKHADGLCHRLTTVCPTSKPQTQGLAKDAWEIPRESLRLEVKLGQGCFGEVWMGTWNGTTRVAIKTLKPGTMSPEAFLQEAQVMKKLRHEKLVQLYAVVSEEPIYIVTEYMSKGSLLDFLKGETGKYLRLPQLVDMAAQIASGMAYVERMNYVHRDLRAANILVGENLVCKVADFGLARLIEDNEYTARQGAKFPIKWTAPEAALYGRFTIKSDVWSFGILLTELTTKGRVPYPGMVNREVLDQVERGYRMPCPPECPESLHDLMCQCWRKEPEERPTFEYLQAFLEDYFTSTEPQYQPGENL

SMILES: O=C(Nc1ccc(CN2CCN(c3ccccc3)CC2)cc1)c1n[nH]c2ccccc12
- inhibition [1]: 32.6%
- inhibition at 10 µM [2]: 48%
- inhibition at 0.5 h, 10 µM [3]: 36%
- inhibition [4]: -3.7%
- IC50 [5]: > 10 µM
- inhibition at 10 µM [6]: 57%
- inhibition [7]: 11.9%
- inhibition at 10 µM [8]: 36%
- IC50 [9]: 0.137 µM
- inhibition [10]: 4.5%
- remaining at 1 h, 1 µM [11]: 50%
- inhibition [12]: -2.5%
- IC50 [13]: 0.164 µM
- inhibition [14]: 1%
- Ratio IC50 [15]: 45
- inhibition [16]: 0.6%

SMILES: O=C(Nc1ccc(C(=O)N2CCN(c3ccccc3)CC2)cc1)c1n[nH]c2ccccc12
- inhibition [1]: 16.8%
- inhibition [4]: 4.9%
- inhibition [7]: 26.3%
- inhibition [10]: 14.9%
- inhibition [12]: -2%
- inhibition [14]: 8%
- inhibition [16]: 2.5%

SMILES: O=C(Nc1ccccc1)c1n[nH]c2ccccc12
- inhibition [1]: 31.9%
- inhibition [4]: 51%
- IC50 [5]: > 10 µM
- inhibition [7]: 42.4%
- inhibition [10]: 86.3%
- inhibition [12]: 3%
- IC50 [13]: 7.7 µM
- inhibition [14]: 10.9%
- inhibition [16]: 6.1%
